Like-named read-outs stand apart in the source and are kept apart here. *1 amine or outer side, *2 acyl side, *3 side chain or, on linkers, in order; H or OH if unused. Where a SMILES comes first, the peptide text is derived from it. Bridges are numbered along the chain shown (N, C = ends). [ ]: non-standard residue; d: D form. The star is where a group is joined. X25 = O=C([C@H](Cc1ccc(C(F)(F)F)cc1)N(CCC(F)(F)F)[*:1])[*:2]; hPhe(3-Cl-4-CF3) = N[C@@H](CCc1ccc(C(F)(F)F)c(Cl)c1)C(=O)O; X37 = O=C([C@H](Cc1ccc(C(F)(F)F)cc1)N(CC1CCC1)[*:1])[*:2]; NPrPhe(4-CF3) = CCCN[C@@H](Cc1ccc(C(F)(F)F)cc1)C(=O)O; X21 = Cc1ccc(C[C@@H](C(=O)[*:2])N(CC2CC2)[*:1])cc1; X10 = C=CCN([C@@H](Cc1ccc(C)cc1)C(=O)[*:2])[*:1]; NMeGly(cPent) = CN[C@H](C(=O)O)C1CCCC1; Pro(4,4-F2) = O=C(O)[C@@H]1CC(F)(F)CN1; NMeAllylGly = C=CC[C@H](NC)C(=O)O; NMeD = CN[C@@H](CC(=O)O)C(=O)O; NMeL = CN[C@@H](CC(C)C)C(=O)O; Morpholide = C1CN(*)CCO1; Ac5c = NC1(C(=O)O)CCCC1; Ac4c = NC1(C(=O)O)CCC1; NEtG = CCNCC(=O)O; Sar = CNCC(=O)O
Assays:
[1] = target: GDP-bound HRAS wild-type protein (Homo sapiens, UniProt P01112); assay: Binding to HRAS by surface plasmon resonance (SPR), Single Cycle Kinetics; conditions: SPR, GDP-bound HRAS wild-type protein vs GDP-bound KRAS wild-type protein
Chain of GDP-bound HRAS wild-type protein (P01112 whole entry): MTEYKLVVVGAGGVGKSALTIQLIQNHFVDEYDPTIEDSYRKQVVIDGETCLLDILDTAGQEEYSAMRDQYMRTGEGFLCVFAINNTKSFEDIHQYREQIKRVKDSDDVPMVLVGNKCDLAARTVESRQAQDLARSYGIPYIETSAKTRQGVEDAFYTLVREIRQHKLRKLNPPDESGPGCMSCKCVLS

[2] = target: GDP-bound NRAS wild-type protein (Homo sapiens, UniProt P01111); assay: Binding to NRAS by surface plasmon resonance (SPR), Single Cycle Kinetics; conditions: SPR, GDP-bound NRAS wild-type protein vs GDP-bound KRAS wild-type protein
Chain of GDP-bound NRAS wild-type protein (P01111 whole entry): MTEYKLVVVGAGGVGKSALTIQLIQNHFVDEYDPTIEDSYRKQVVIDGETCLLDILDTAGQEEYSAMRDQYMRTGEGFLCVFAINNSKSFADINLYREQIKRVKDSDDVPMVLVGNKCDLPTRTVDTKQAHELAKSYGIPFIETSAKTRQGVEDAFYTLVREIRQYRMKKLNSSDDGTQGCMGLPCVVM

[3] = target: GDP-bound KRAS wild-type protein (Homo sapiens, UniProt P01116); assay: Binding to KRAS by surface plasmon resonance (SPR), Single Cycle Kinetics; conditions: GDP-bound KRAS wild-type protein, read-out: KRAS KD
Chain of GDP-bound KRAS wild-type protein (P01116 whole entry): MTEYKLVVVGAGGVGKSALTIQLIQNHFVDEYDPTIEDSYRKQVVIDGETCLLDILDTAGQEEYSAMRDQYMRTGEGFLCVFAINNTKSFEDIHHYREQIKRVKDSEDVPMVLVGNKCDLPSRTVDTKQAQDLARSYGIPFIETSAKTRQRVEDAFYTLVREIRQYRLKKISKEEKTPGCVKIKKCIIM

[4] = SPR Single Cycle Kinetics, 1:1 binding model

Kd [3, 4] [nM]	Kd ([3]; SPR, Single Cycle Kinetics) [nM]	SMILES	HRAS/KRAS (ratio of KD value for HRAS to KD value for KRAS) [1]	NRAS/KRAS (ratio of KD value for NRAS to KD value for KRAS) [2]	HRAS/KRAS (ratio of KD value with respect to HRAS to KD value with respect to KRAS) [1]	NRAS/KRAS (ratio of KD value with respect to NRAS to KD value with respect to KRAS) [2]
–	0.16	C#CC[C@H]1C(=O)N[C@@H]([C@@H](C)CC)C(=O)N(C)CC(=O)N(C)[C@H]2C/C=C\CCN(C2=O)[C@@H](Cc2ccc(C)cc2)C(=O)N(C)CC(=O)N[C@@H](CCc2ccc(C(F)(F)F)c(Cl)c2)C(=O)N2CC3(CC3)C[C@H]2C(=O)NC2(CC(C)(C)C2)C(=O)N(C)[C@@H](C2CCCC2)C(=O)N(C)[C@H](C(=O)N(C)C)CC(=O)N1C [PP2982]	A (a compound having 10 or more and less than 20 is denoted as A)	A (a compound having 10 or more and less than 20 is denoted as A)	–	–
–	0.36	CCC[C@H]1C(=O)N[C@@H]([C@@H](C)CC)C(=O)N(C)CC(=O)N(C)[C@H]2C/C=C\CCN(C2=O)[C@@H](Cc2ccc(C)cc2)C(=O)N(C)CC(=O)N[C@@H](CCc2ccc(C(F)(F)F)c(OC)c2)C(=O)N2C[C@H](OCC)C[C@H]2C(=O)NC2(CC(C)(C)C2)C(=O)N(C)[C@@H](C(CC)CC)C(=O)N(C)[C@H](C(=O)N(C)C)CC(=O)N1C [PP2068]	B (a compound having 3 or more and less than 10 is denoted as B)	A (a compound having 10 or more and less than 20 is denoted as A)	–	–
230	–	C=CC[C@H]1C(=O)N(CC=C)[C@@H](Cc2ccc(C)cc2)C(=O)N(C)CC(=O)N[C@@H](CCc2ccc(C(F)(F)F)c(Cl)c2)C(=O)N2CCC[C@H]2C(=O)NC2(CCCC2)C(=O)N(C)[C@@H](C2CCCC2)C(=O)N(C)[C@H](C(=O)N2CCOCC2)CC(=O)N(C)[C@@H](CC(C)C)C(=O)N[C@@H]([C@@H](C)CC)C(=O)N(C)CC(=O)N1C [PP0139] ([NMeL]I[Sar][NMeAllylGly][X10][Sar][hPhe(3-Cl-4-CF3)]P[Ac5c][NMeGly(cPent)][NMeD]-Morpholide; lactam N-11)	C (A compound having a KD ratio of 0.1 or more and less than 3 is denoted as C)	C (A compound having a KD ratio of 0.1 or more and less than 3 is denoted as C)	–	–
–	0.71	CCO[C@@H]1C[C@H]2C(=O)NC3(CC(C)(C)C3)C(=O)N(C)[C@@H](C(CC)CC)C(=O)N(C)[C@H](C(=O)N(C)C)CC(=O)N(C)[C@@H](CC(C)C)C(=O)N[C@@H]([C@@H](C)CC)C(=O)N(C)CC(=O)N(C)[C@H]3C/C=C\CCN(C3=O)[C@@H](Cc3ccc(C)cc3)C(=O)N(C)CC(=O)N[C@@H](CCc3ccc(Cl)c(Cl)c3)C(=O)N2C1 [PP2185]	A (a compound having 10 or more and less than 20 is denoted as A)	AA (a compound having 20 or more is denoted as AA)	–	–

The remaining lines, values behind:

SMILES	Kd [3, 4] [nM]	Kd ([3]; SPR, Single Cycle Kinetics) [nM]	HRAS/KRAS (ratio of KD value for HRAS to KD value for KRAS) [1]	NRAS/KRAS (ratio of KD value for NRAS to KD value for KRAS) [2]	HRAS/KRAS (ratio of KD value with respect to HRAS to KD value with respect to KRAS) [1]	NRAS/KRAS (ratio of KD value with respect to NRAS to KD value with respect to KRAS) [2]
CC[C@H](C)[C@@H]1NC(=O)[C@H](CC(C)C)N(C)C(=O)C[C@@H](C(=O)N2CCOCC2)N(C)C(=O)[C@H](C2CCCC2)N(C)C(=O)C2(CCCC2)NC(=O)[C@@H]2CCCN2C(=O)[C@H](CCc2ccc(C(F)(F)F)c(Cl)c2)NC(=O)CN(C)C(=O)[C@H](Cc2ccc(C(F)(F)F)cc2)N(CCC(F)(F)F)C(=O)CN(C)C(=O)CN(C)C1=O [PP0131] ([NMeL]I[Sar][Sar][X25][Sar][hPhe(3-Cl-4-CF3)]P[Ac5c][NMeGly(cPent)][NMeD]-Morpholide; lactam N-11)	0.14	–	C (A compound having a KD ratio of 0.1 or more and less than 3 is denoted as C)	B (a compound having 3 or more and less than 10 is denoted as B)	–	–
CC[C@H](C)[C@@H]1NC(=O)[C@H](CC(C)C)N(C)C(=O)C[C@@H](C(=O)N2CCOCC2)N(C)C(=O)[C@H](C2CCCC2)N(C)C(=O)C2(CCCC2)NC(=O)[C@@H]2CCCN2C(=O)[C@H](CCc2ccc(C(F)(F)F)c(Cl)c2)NC(=O)CN(C)C(=O)[C@H](Cc2ccc(C(F)(F)F)cc2)N(CC2CCC2)C(=O)CN(C)C(=O)CN(C)C1=O [PP0123] ([NMeL]I[Sar][Sar][X37][Sar][hPhe(3-Cl-4-CF3)]P[Ac5c][NMeGly(cPent)][NMeD]-Morpholide; lactam N-11)	0.83	–	C (A compound having a KD ratio of 0.1 or more and less than 3 is denoted as C)	B (a compound having 3 or more and less than 10 is denoted as B)	–	–
CCCN1C(=O)CN(C)C(=O)CN(CC)C(=O)[C@H]([C@@H](C)CC)NC(=O)[C@H](CC(C)C)N(C)C(=O)C[C@@H](C(=O)N2CCOCC2)NC(=O)[C@H](C2CCCC2)N(C)C(=O)C2(CCC2)NC(=O)[C@@H]2CC(F)(F)CN2C(=O)[C@H](CCc2ccc(C(F)(F)F)c(Cl)c2)NC(=O)CN(C)C(=O)[C@@H]1Cc1ccc(C(F)(F)F)cc1 [PP0334] ([NMeL]I[NEtG][Sar][NPrPhe(4-CF3)][Sar][hPhe(3-Cl-4-CF3)][Pro(4,4-F2)][Ac4c][NMeGly(cPent)]D-Morpholide; lactam N-11)	4.7	–	C (A compound having a KD ratio of 0.1 or more and less than 3 is denoted as C)	B (a compound having 3 or more and less than 10 is denoted as B)	–	–
CC[C@H](C)[C@@H]1NC(=O)[C@H](CC(C)C)N(C)C(=O)C[C@@H](C(=O)N2CCOCC2)N(C)C(=O)[C@H](C2CCCC2)N(C)C(=O)C2(CCCC2)NC(=O)[C@@H]2CCCN2C(=O)[C@H](CCc2ccc(C(F)(F)F)c(Cl)c2)NC(=O)CN(C)C(=O)[C@H](Cc2ccc(C)cc2)N(CC2CC2)C(=O)CN(C)C(=O)CN(C)C1=O [PP0064] ([NMeL]I[Sar][Sar][X21][Sar][hPhe(3-Cl-4-CF3)]P[Ac5c][NMeGly(cPent)][NMeD]-Morpholide; lactam N-11)	0.42	–	C (A compound having a KD ratio of 0.1 or more and less than 3 is denoted as C)	C (A compound having a KD ratio of 0.1 or more and less than 3 is denoted as C)	–	–
CCO[C@@H]1C[C@H]2C(=O)NC3(CCC3)C(=O)N(C)[C@@H](C3CCCC3)C(=O)N(C)[C@H](C(=O)N3CCOCC3)CC(=O)N(C)[C@@H](CC(C)C)C(=O)N[C@@H]([C@@H](C)CC)C(=O)N(C)CC(=O)N(C)[C@H]3CCCCCN(C3=O)[C@@H](Cc3ccc(F)cc3OC)C(=O)N(C)CC(=O)N[C@@H](CCc3cc(F)c(C(F)(F)F)c(F)c3)C(=O)N2C1 [PP0924]	–	0.82	B (a compound having 3 or more and less than 10 is denoted as B)	B (a compound having 3 or more and less than 10 is denoted as B)	–	–
CC[C@H](C)[C@@H]1NC(=O)[C@H](CC(C)C)N(C)C(=O)C[C@@H](C(=O)N2CCOCC2)N(C)C(=O)[C@H](C2CCCC2)N(C)C(=O)C2(CCCC2)NC(=O)[C@@H]2CC(F)(F)CN2C(=O)[C@H](CCc2cc(F)c(C(F)(F)F)c(F)c2)NC(=O)CN(C)C(=O)[C@H](Cc2ccc(C(F)(F)F)cc2)N2CCCCC[C@@H](C2=O)N(C)C(=O)CN(C)C1=O [PP0491]	1.1	–	–	–	B (a compound having 3 or more and less than 10 is denoted as B)	B (a compound having 3 or more and less than 10 is denoted as B)
